ChEMBL document CHEMBL1201862, “PubChem BioAssay data set” (2004)
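A five-concentration, 48-hour dose response in 96-well plates underlies each endpoint, interpolated linearly between surrounding concentrations. Abbreviation: GI50, concentration required for 50% inhibition of growth.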 The source made the active and inactive calls. Rule as the data show it: active = GI50 up to about 1.1 µM and inactive = higher.

Assays:
Assay in all cases: NCI-60 cell line screen, 48 h
[1] = system: HL-60
[2] = system: OVCAR-5
[3] = system: OVCAR-3
[4] = system: ACHN
[5] = system: HOP-18
[6] = system: HT-29
[7] = system: SK-MEL-28
[8] = system: SN12C
[9] = system: EKVX
[10] = system: SW-620
[11] = system: U-251
[12] = system: LOX IMVI
[13] = system: RPMI-8226
[14] = system: SNB-19
[15] = system: MOLT-4
[16] = system: HCC 2998
[17] = system: DLD-1
[18] = system: KM-20L2
[19] = system: UACC-257
[20] = system: NCI-H226
[21] = system: KM12
[22] = system: OVCAR-4
[23] = system: UO-31
[24] = system: SK-MEL-5
[25] = system: UACC-62
[26] = system: HCT-116
[27] = system: DMS-273
[28] = system: CCRF-CEM
[29] = system: LXFL 529
[30] = system: CAKI-1
[31] = system: IGROV-1
[32] = system: COLO 205
[33] = system: K562
[34] = system: SK-OV-3
[35] = system: DMS-114
[36] = system: SK-MEL-2
[37] = system: SF-268
[38] = system: A498
[39] = system: SNB-75
[40] = system: NCI-H23
[41] = system: HCT-15
[42] = system: SNB-78
[43] = system: HOP-62
[44] = system: A549
[45] = system: M19-MEL
[46] = system: NCI-H522
[47] = system: 786-0
[48] = system: SF-295
[49] = system: Malme-3M
[50] = system: TK-10
[51] = system: M14
[52] = system: OVCAR-8
[53] = system: NCI-H460
[54] = system: HOP-92
[55] = system: SF-539

Measured: GI50

NC(=O)CCC(NCc1c2ccccc2[n+]([O-])c2ccccc12)C(=O)O (stereo not drawn)
34.5 µM: [41]
inactive: [1] 29.3 µM | [2] > 100 µM | [3] > 100 µM | [4] 78 µM | [5] 33.5 µM | [6] > 100 µM | [7] > 100 µM | [8] > 100 µM | [9] > 100 µM | [10] 52.5 µM | [11] > 100 µM | [12] 39.1 µM | [13] 36.1 µM | [14] > 100 µM | [15] 30 µM | [16] > 100 µM | [17] 46.9 µM | [18] 52.6 µM | [19] > 100 µM | [20] 60.1 µM | [21] 65.9 µM | [22] 40.1 µM | [23] 59 µM | [24] 68.7 µM | [25] 90.8 µM | [26] 30.8 µM | [27] 56.8 µM | [28] 35.6 µM | [29] 45.1 µM | [30] 82.8 µM | [31] > 100 µM | [32] > 100 µM | [33] 36.3 µM | [34] > 100 µM | [35] 41.9 µM | [36] 95.9 µM | [37] 59.2 µM | [38] > 100 µM | [39] 49.7 µM | [40] 63 µM | [42] > 100 µM | [43] > 100 µM | [44] > 100 µM | [45] 95.5 µM | [46] 70 µM | [47] 70.8 µM | [48] > 100 µM | [49] 81.8 µM | [50] > 100 µM | [51] > 100 µM | [52] > 100 µM | [53] > 100 µM

Cc1c2cc[n+](C)cc2c(C)c2c1[nH]c1ccc(OC(C)C)cc12
active: [8] 0.542 µM | [29] 0.875 µM | [37] 0.418 µM | [39] 0.384 µM | [55] 1.01 µM
> 58.2 µM: [41]
inactive: [1] 2.43 µM | [2] 12.9 µM | [3] 3.1 µM | [4] 16.1 µM | [5] 3.75 µM | [6] 4.25 µM | [7] 4.42 µM | [9] 5.06 µM | [10] 3.12 µM | [12] 6.95 µM | [13] 7.74 µM | [15] 5.18 µM | [18] 4.72 µM | [19] 2.82 µM | [21] 2.75 µM | [22] 3.85 µM | [23] 27.3 µM | [24] 1.48 µM | [25] 2.71 µM | [26] 3.77 µM | [27] 2.69 µM | [31] 2.55 µM | [32] 1.39 µM | [54] 3.01 µM | [36] 2.56 µM | [38] 12 µM | [40] 2.51 µM | [44] 3.44 µM | [45] 2.09 µM | [46] 1.98 µM | [49] 1.97 µM | [50] 39.3 µM | [51] 10.4 µM | [53] 2.6 µM
